The values below come from US8673980B2, “Closthioamides, compositions, and methods for treating bacterial or fungal infections or cancer” (Leibniz-Institut fuer Naturstoff-Forschung und …, priority 2009, dated 2014).

The structures appear in SMILES notation. Converted amounts (≈) assume the structure as drawn.

Format in all cases: cell-based
In one data set the test system is K-562. The data set is described as follows: Antiproliferative activity on K-562 cells. To be noted: K562; K-562 human erythromyeloblastoid leukemia cells. How it is done:
(§1) For the detailed evaluation of its biological profile as anti-cancer agent, cultured human tumor cell lines were treated with the closthioamide 1. In particular, closthioamide 1 was tested for its inhibitory effect on cell growth of different human cell lines.

For data set [1], the system named is E. coli, Mycobacterium vaccae, MRSA, VRE. The experiment in a line: Activity of synthetic closthioamide using 4 bacterial test strains (FIG. 4A). The text has this:
(§2) FIG. 4. A Activity of synthetic closthioamide (1) using 4 bacterial test strains; from left to right: (1) E. coli, (2) Mycobacterium vaccae, (3) methicillin-resistant Staphylococcus aureus (MRSA), (4) vancomycin-resistant Enterococcus faecalis (VRE). B Ciprofloxacin control.

Data set [2] in a line: Cytotoxicity (data not shown).
Data set [3] concerns Enterococcus faecalis VRE. The data set is described as follows: Standardized antimicrobial assay (agar diffusion test). To be noted: for antibacterial activity: vancomycin-resistant Enterococcus faecalis.
Text: as §2
(§3) For the detailed evaluation of their antimicrobial (antibacterial, antifungal) activity, dosthioamides according to the invention were subjected to standardized antimicrobial assays (Herold et al., Chem. Eur. J., 2005), e.g. agar diffusion test. In particular, closthioamide 1 was tested for its inhibitory effect on cell growth of different bacterial strains and/or fungi. The tested microbes included Bacillus subtilis, Staphylococcus aureus, E. coli, Pseudomonas aeruginosa, Staphylococcus aureus MRSA, Enterococcus faecalis VRE, Mycobacterium vaccae, Sporobolomyces salmonicolor, Candida albicans, and Penicillium notatum.
For orientation: Agar diffusion results depend on both activity and mobility in agar.

Data set [4] relates to Staphylococcus aureus MRSA. Described as above.
Text: as §2, §3

Another data set has as its system Bacillus subtilis. The data set is described as above. How it is done:
as §3

A further data set has as its system Penicillium notatum. The data set is described as above. Here is the method:
as §3

In another data set the test system is Candida albicans. The description is as above. How it is done:
as §3

Another data set deals with Mycobacterium vaccae. The description is as above. How it is done:
as §3

Data set [5] relates to Sporobolomyces salmonicolor. The data set is described as above. How it is done:
as §3

A further data set deals with E. coli. The data set is described as above. How it is done:
as §3

In the next data set the test system is Staphylococcus aureus. Described as above. Here is the method: as §3
In the next data set the test system is Pseudomonas aeruginosa. The data set is described as above. Here is the method: as §3
In another data set the test system is HUVEC. The experiment in a line: Antiproliferative activity on HUVEC cells. To be noted: HUVEC human umbilical vein endothelial cells. Here is the method:
as §1

Another data set relates to HeLa. The experiment in a line: Cytotoxicity on HeLa cells. To be noted: HeLa human epithelial cervical cancer. Here is the method:
The major metabolite (1) was isolated from a 5 L culture and purified by sequential open column chromatography and RP-HPLC (FIG. 1), yielding 1.04 mg of a pale yellow compound. […] According to HR-MS measurements, 1 has a molecular formula of C29H38N6O2S6 and appeared to be amazingly rich in sulfur atoms. Furthermore, NMR data disclosed that the molecule is symmetrical: The ^13C NMR and DEPT spectra indicated the presence of six methylene, two methine, and five quaternary carbons. In the ^1H NMR spectrum signals corresponding to two olefinic and six methylene protons were observed (see Table 1).
as §1

For `Oc1ccc(C(=S)NCCC(=S)NCCC(=S)NCCCNC(=S)CCNC(=S)CCNC(=S)c2ccc(O)cc2)cc1` [closthioamide 1, closthioamide], the GI50 stood at 1.5 µg/mL (≈ 2.16 µM) in the data set on K-562 and 6.4 µg/mL (≈ 9.21 µM) in the data set on HUVEC. In addition, in [1], the “activity of synthetic compound compared with the bacterial metabolite” value was “equivalent to the activity of the bacterial metabolite”. Besides, in data set [2], the cytotoxicity entry was “only moderate cytotoxicity”. Further, the antimicrobial activity entry (in [3] (Enterococcus faecalis VRE); in data set [4] (Staphylococcus aureus MRSA); with Bacillus subtilis; with Penicillium notatum; with Candida albicans; with Mycobacterium vaccae) was “showed activity” throughout. Besides, the antimicrobial activity entry (in data set [5]; in the data set with E. coli; in the data set on Staphylococcus aureus; in the data set with Pseudomonas aeruginosa) was “showed activity” throughout. For the same compound, the antibacterial activity entry was “highly active” in data set [3] (FIG. 4, synthetic closthioamide); “antibacterial activity” in data set [3] (preliminary bioactivity profiling, isolated metabolite); “highly active” in [4] (FIG. 4, synthetic closthioamide, methicillin-resistant Staphylococcus aureus); “antibacterial activity” in data set [4] (preliminary bioactivity profiling, isolated metabolite, methicillin-resistant Staphylococcus aureus (MRSA)). Besides, in the data set with HeLa, the half-maximal cytotoxic concentration (CC50) came out at 5.1 µg/mL (≈ 7.34 µM).

In general, GI50 refers to the concentration that inhibits growth by half. The low end stands for more potent growth inhibition, the high end for less potent growth inhibition. Broadly, the CC50 is the concentration giving 50% cytotoxicity. Lower therefore signals greater toxicity to the cells.
